Test results taken from PMC11762167, “G Protein-Coupled Receptor 17 Inhibits Glucagon-like Peptide-1 Secretion via a Gi/o-Dependent Mechanism in Enteroendocrine Cells” (Biomolecules, 2024).

Target: hGPR17L (Homo sapiens, UniProt Q13304)
Assay: Endpoint cAMP (HTRF) in GLUTag cells expressing hGPR17L
Format: cell-based
Design: host or cells: GLUTag cells (murine enteroendocrine line), adenoviral transduction; Mean Diff. of cAMP, MDL29,951 vs FSK alone (Tukey): unit not given here
Details: for Predicted (LS) mean diff.: Fig 2B, Forskolin; for Mean Diff. of cAMP, MDL29,951 vs FSK alone (Tukey): hGPR17L
Description: GLUTag cells were maintained in Dulbecco’s Modified Eagle Medium (DMEM) supplemented with 10% fetal bovine serum and 1% penicillin–streptomycin in a humidified incubator at 37 °C and 5% CO2. For adenovirus transduction, GLUTag cells were seeded into poly-D-lysine coated 96-well plates or 4-chamber slides. The next day, cells were transduced with adenoviruses (100–1250 viral particles per cell at time of seeding) as indicated. After 24–30 h, adenovirus-containing media was changed to serum-free growth media for overnight serum starvation. The following day, GLUTag cells were used for cAMP or calcium signaling assays, GLP-1 secretion assays, or immunostaining and imaging.
Endpoint cAMP measurements were conducted as follows. GLUTag cells were seeded into poly-D-lysine-coated 96-well plates and transduced with adenovirus as specified above and then tested for cAMP signaling. Medium was removed and cells were washed with cAMP stimulation buffer (Hanks’ balanced salt solution (HBSS), 20 mM HEPES, pH 7.4) and then incubated in cAMP stimulation buffer for 30 min at 37 °C and 5% CO2. Cells were then treated for 30 min with agonist and forskolin in the presence of 500 µM IBMX at 37 °C and 5% CO2. Stimulation buffer was then decanted, and cAMP lysis buffer (50 mM HEPES, 10 mM CaCl2, 0.35% Triton X-100, and 500 µM IBMX) was added and shaken at 700 rpm for 1 h. Lysate was transferred to a 384-well plate, and the cAMP levels were quantified using the Cisbio HTRF cAMP (Gi kit; Revvity, Waltham, MA, USA) according to the manufacturer’s protocol.

[1] = 10 µM forskolin, GLUTag hGPR17L

Chain of hGPR17L (Q13304 whole entry): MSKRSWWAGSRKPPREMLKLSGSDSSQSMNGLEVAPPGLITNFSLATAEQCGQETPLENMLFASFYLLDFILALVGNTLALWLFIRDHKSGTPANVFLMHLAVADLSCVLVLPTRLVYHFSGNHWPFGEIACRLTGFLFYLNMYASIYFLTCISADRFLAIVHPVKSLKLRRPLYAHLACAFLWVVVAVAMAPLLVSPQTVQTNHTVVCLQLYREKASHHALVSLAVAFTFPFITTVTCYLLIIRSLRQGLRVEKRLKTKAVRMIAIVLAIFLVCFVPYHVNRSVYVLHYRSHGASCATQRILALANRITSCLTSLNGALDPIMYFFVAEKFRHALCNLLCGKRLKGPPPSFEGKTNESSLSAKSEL

## O=C(O)CCc1c(C(=O)O)[nH]c2cc(Cl)cc(Cl)c12 [MDL29,951]
100 nM YM-254890, 10 µM forskolin
  effect on forskolin-stimulated cAMP upon treatment with Gq inhibitor YM-254890: inhibited
100 ng/mL PTX, 10 µM forskolin
  inhibition of forskolin-stimulated cAMP in the presence of PTX: unable to inhibit
10 µM forskolin, 500 µM IBMX, GLUTag hGPR17L, read-out: IC50, inhibition of forskolin-stimulated cAMP
  IC50: 0.029 µM
[1]
  pEC50, reversal of inhibition of forskolin-stimulated cAMP: 4.94 ± 0.09
  pIC50, inhibition of forskolin-stimulated cAMP: 7.54 ± 0.11
10 µM forskolin, GLUTag hGPR17L, read-out: EC50, reversal of inhibition of forskolin-stimulated cAMP at higher concentrations
  EC50: 12 µM
Log [MDL29,951] (M) -4.0 vs. Vehicle, +100 nM YM-254890
  Predicted (LS) mean diff.: -29.51
Log [MDL29,951] (M) -4.0 vs. Vehicle, +100 ng/mL PTX
  Predicted (LS) mean diff.: 28.26
Log [MDL29,951] (M) -4.0 vs. Vehicle, +Vehicle
  Predicted (LS) mean diff.: -12.1
Log [MDL29,951] (M) -4.6 vs. Vehicle, +100 nM YM-254890
  Predicted (LS) mean diff.: -35.09
Log [MDL29,951] (M) -4.6 vs. Vehicle, +100 ng/mL PTX
  Predicted (LS) mean diff.: 20.2
Log [MDL29,951] (M) -4.6 vs. Vehicle, +Vehicle
  Predicted (LS) mean diff.: -15.6
Log [MDL29,951] (M) -5.2 vs. Vehicle, +100 nM YM-254890
  Predicted (LS) mean diff.: -39.39
Log [MDL29,951] (M) -5.2 vs. Vehicle, +100 ng/mL PTX
  Predicted (LS) mean diff.: 8.85
Log [MDL29,951] (M) -5.2 vs. Vehicle, +Vehicle
  Predicted (LS) mean diff.: -22.36
Log [MDL29,951] (M) -5.8 vs. Vehicle, +100 nM YM-254890
  Predicted (LS) mean diff.: -44.26
Log [MDL29,951] (M) -5.8 vs. Vehicle, +100 ng/mL PTX
  Predicted (LS) mean diff.: -1.585
Log [MDL29,951] (M) -5.8 vs. Vehicle, +Vehicle
  Predicted (LS) mean diff.: -32.92
Log [MDL29,951] (M) -6.4 vs. Vehicle, +100 nM YM-254890
  Predicted (LS) mean diff.: -39.29
Log [MDL29,951] (M) -6.4 vs. Vehicle, +100 ng/mL PTX
  Predicted (LS) mean diff.: -7.715
Log [MDL29,951] (M) -6.4 vs. Vehicle, +Vehicle
  Predicted (LS) mean diff.: -33.45
Log [MDL29,951] (M) -7.0 vs. Vehicle, +100 nM YM-254890
  Predicted (LS) mean diff.: -30.32
Log [MDL29,951] (M) -7.0 vs. Vehicle, +100 ng/mL PTX
  Predicted (LS) mean diff.: -2.207
Log [MDL29,951] (M) -7.0 vs. Vehicle, +Vehicle
  Predicted (LS) mean diff.: -27.4
Log [MDL29,951] (M) -7.6 vs. Vehicle, +100 nM YM-254890
  Predicted (LS) mean diff.: -16.56
Log [MDL29,951] (M) -7.6 vs. Vehicle, +100 ng/mL PTX
  Predicted (LS) mean diff.: -4.54
Log [MDL29,951] (M) -7.6 vs. Vehicle, +Vehicle
  Predicted (LS) mean diff.: -8.48
Log [MDL29,951] (M) -8.2 vs. Vehicle, +100 nM YM-254890
  Predicted (LS) mean diff.: -9.253
Log [MDL29,951] (M) -8.2 vs. Vehicle, +100 ng/mL PTX
  Predicted (LS) mean diff.: 0.26
Log [MDL29,951] (M) -8.2 vs. Vehicle, +Vehicle
  Predicted (LS) mean diff.: 3.753
Log [MDL29,951] (M) -8.8 vs. Vehicle, +100 nM YM-254890
  Predicted (LS) mean diff.: -3.55
Log [MDL29,951] (M) -8.8 vs. Vehicle, +100 ng/mL PTX
  Predicted (LS) mean diff.: -5.335
Log [MDL29,951] (M) -8.8 vs. Vehicle, +Vehicle
  Predicted (LS) mean diff.: 6.603
Log [MDL29,951] (M) -9.4 vs. Vehicle, +100 nM YM-254890
  Predicted (LS) mean diff.: 1.64
Log [MDL29,951] (M) -9.4 vs. Vehicle, +100 ng/mL PTX
  Predicted (LS) mean diff.: 2.945
Log [MDL29,951] (M) -9.4 vs. Vehicle, +Vehicle
  Predicted (LS) mean diff.: 8.423
At 390 nM MDL29,951, 10 µM forskolin
  maximum inhibition of forskolin-stimulated cAMP: 37 ± 5.1%
Log [MDL29,951] (M) -4.0
  Mean Diff. of cAMP, MDL29,951 vs FSK alone (Tukey): -0.306
Log [MDL29,951] (M) -4.6
  Mean Diff. of cAMP, MDL29,951 vs FSK alone (Tukey): -0.593
Log [MDL29,951] (M) -5.2
  Mean Diff. of cAMP, MDL29,951 vs FSK alone (Tukey): -1.138
